Data published in patent US20240182596A1, “ANTI-NAPI2B ANTIBODIES AND ANTIBODY-DRUG-CONJUGATES BASED THEREON, THERAPEUTIC METHODS AND USES THEREOF” (Tubulis GmbH, priority 2022, published 2024).

System: OVCAR-3 cells
Experiment: In vitro inhibition of Topoisomerase-I by delivery of Exatecan via the ADC (DNA-damage markers)
Format: cell-based
Conditions: 5 μg/mL, 72 h
Method: OVCAR-3 cells were treated with 5 μg/mL TUB-040 or 5 nM free Exatecan for 72 h. Cells were stained with Live/Dead stain and for the DNA-damage markers active caspase-3, cleaved PARP and phosphorylated H2A.X (Ser-139) and analyzed by flow cytometry. Graphs show means of n=2±SEM (FIG. 9).

## TUB-040
  Induction of DNA-damage markers (active caspase-3, cleaved PARP, phosphorylated H2A.X): induces DNA-damage markers
